A value given as a limit tells only on which side of the number the result lay.

Chain of URAT-1 transporter (Q96S37 other isoform, or with tags, fused parts or gaps): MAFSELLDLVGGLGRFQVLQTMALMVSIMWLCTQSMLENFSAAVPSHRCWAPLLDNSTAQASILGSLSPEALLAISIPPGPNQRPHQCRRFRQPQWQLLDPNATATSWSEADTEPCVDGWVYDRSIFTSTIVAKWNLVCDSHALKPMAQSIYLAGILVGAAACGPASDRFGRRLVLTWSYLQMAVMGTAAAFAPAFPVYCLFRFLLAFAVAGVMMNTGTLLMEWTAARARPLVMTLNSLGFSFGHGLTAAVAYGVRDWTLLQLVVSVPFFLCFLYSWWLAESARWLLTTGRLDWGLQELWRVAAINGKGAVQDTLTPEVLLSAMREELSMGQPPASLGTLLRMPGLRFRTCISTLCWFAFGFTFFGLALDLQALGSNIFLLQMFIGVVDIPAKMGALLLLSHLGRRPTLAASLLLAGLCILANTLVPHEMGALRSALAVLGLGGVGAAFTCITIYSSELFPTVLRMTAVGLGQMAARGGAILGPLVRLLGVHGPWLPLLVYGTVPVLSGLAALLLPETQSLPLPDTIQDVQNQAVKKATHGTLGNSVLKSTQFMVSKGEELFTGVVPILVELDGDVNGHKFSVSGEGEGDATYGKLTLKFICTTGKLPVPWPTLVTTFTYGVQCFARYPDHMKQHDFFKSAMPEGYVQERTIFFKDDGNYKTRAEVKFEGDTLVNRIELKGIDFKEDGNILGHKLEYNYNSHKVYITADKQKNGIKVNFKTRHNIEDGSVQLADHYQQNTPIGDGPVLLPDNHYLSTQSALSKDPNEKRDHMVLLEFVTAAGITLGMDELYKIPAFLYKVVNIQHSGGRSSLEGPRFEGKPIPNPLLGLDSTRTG

This experiment has as its target URAT-1 transporter (Homo sapiens (Human), UniProt Q96S37). Put plainly: URAT-1 inhibitor activity: [14C]-uric acid uptake in CHO-URAT1(L)GFP#8 (CHO#8) cells, scintillation proximity. The conditions noted are these: inhibition of [14C]-uric acid (30 nM) uptake into CHO#8 cells; compound 0 to 10 μM; 4 parameter logistic fit. Format: cell-based. An excerpt:
The nucleotide sequence for the long isoform of URAT1 (NM_144585) was C-terminally fused to that of enhanced green fluorescent protein (eGFP) (hereinafter referred to as URAT1(L)GFP). The combined sequence was codon-optimised and custom synthesized. The synthesized sequence was generated in pDONR221 Gateway entry vector (Invitrogen Life Technologies) prior to cloning in pLenti6.3/V5 Gateway destination vector (Invitrogen Life Technologies).
Lentiviral particles were generated according to ViraPower HiPerform expression system procedure (Invitrogen Life Technologies) and used to transduce CHO cells. […] The clonal pools were sorted using fluorescence-activated cell sorting (FACS) on the basis of GFP expression with the gating set at the top 50% of expression into single cells which were subsequently expanded to generate clonal lines. […] This cell line was used for all screening activities and is referred to as CHO-URAT1(L)GFP#8 or CHO#8.
The potency of the compounds of formula (I) as inhibitors of the URAT-1 transporter was determined as follows.
CHO#8 cells were cultured in cell line maintenance flasks in medium consisting of Dulbecco's modified Eagle medium (DMEM) with high glucose and sodium pyruvate (4.5 g of glucose per liter, Invitrogen Life Technologies), supplemented with heat-inactivated foetal bovine serum (FBC, 10% v/v), 1×NEAA (non-essential amino acids) and blasticidin (10 μg/ml). Cultures were grown in 175 cm^2 tissue culture flasks in a humidified incubator at approximately 37° C. in approximately 95% air/5% CO2. Near confluent CHO#8 cell cultures were harvested by trypsinisation, re-suspended in culture medium and the process was repeated once or twice weekly to provide sufficient cells for use.
Assay ready flasks were generated by the same method, except the cells were not cultured in blasticidin.
Assay ready frozen cells were generated by freezing 40,000,000 cells in 1 ml of FBS (without blasticidin) containing 10% DMSO per vial. One vial was sufficient for 5 assay plates. Each vial was thawed rapidly to 37° C., washed and re-suspended in pre-warmed culture medium for seeding onto assay plates.
CHO#8 cells were seeded onto Cytostar™ 96-well plates at a density of […]. The cells were cultured for 1 day at approximately 37° C. in a humidified incubator containing approximately 5% CO2 in air. After approximately 24 hours culture, cells were used for uptake experiments.
On the day of assay, culture medium was removed from the wells and the cells were washed once with 50 μL of chloride-containing buffer (136.7 mM NaCl, 5.36 mM KCl, 0.952 mM CaCl2, 0.441 mM KH2PO4, 0.812 mM MgSO4, 5.6 mM D-glucose, 0.383 mM Na2HPO4.2H2O, 10 mM HEPES, pH 7.4 with NaOH). The cells were pre-incubated with another 50 μL of chloride-containing buffer for one hour at approximately 37° C. in a humidified incubator containing approximately 5% CO2 in air.
Assay compound plates were prepared by diluting the compounds of formula (I) with chloride-free buffer (125 mM Na-gluconate, 4.8 mM K-gluconate, 1.3 mM Ca-gluconate, 1.2 mM KH2PO4, 1.2 mM MgSO4, 5.6 mM D-glucose, 25 mM HEPES, pH 7.4 with NaOH) in 100% DMSO to a final concentration of 1% DMSO. [^14C]-Uric Uric acid working stock was made by addition of radiolabeled compound to a final concentration of 120 nM in chloride-free buffer. In all wells, the final assay concentration of solvent (DMSO) was 0.25%; the final assay concentration of [^14C]-uric acid was 30 nM in chloride-free buffer and the final compound of formula (I) concentrations ranged from 0 to 10 μM.
After pre-incubation, cells were washed with 50 μL of chloride-free buffer and another 50 μL of chloride-free buffer was added.
For orientation: IC50 means the concentration that inhibits the measured activity by half. A lower IC50 goes with inhibition by little substance. On to `N#Cc1ccc(Oc2ccc(S(=O)(=O)Nc3ccc(Cl)cn3)cc2C#N)cc1Cl` [compound 232, 4-(3-chloro-4-cyanophenoxy)-N-(5-chloropyridin-2-yl)-3-cyanobenzenesulfonamide], for which the IC50 worked out at 12 nM. For `Cc1ccc(Oc2ccc(S(=O)(=O)Nc3ccc(F)cn3)cc2C#N)cc1Cl` [Example 22, 4-(3-chloro-4-methylphenoxy)-3-cyano-N-(5-fluoropyridin-2-yl)benzenesulfonamide] the value was 209 nM; for `N#Cc1c(Cl)cccc1Oc1ccc(S(=O)(=O)Nc2ccccn2)cc1` [Example 218, 4-(3-chloro-2-cyanophenoxy)-N-(pyridin-2-yl)benzenesulfonamide], more than 10000 nM; for `N#Cc1ccc(Oc2ccc(S(=O)(=O)Nc3ccc(F)cn3)cc2C#N)cn1` [Example 205, 3-cyano-4-[(6-cyanopyridin-3-yl)oxy]-N-(5-fluoropyridin-2-yl)benzenesulfonamide], 2630 nM. For `Cc1cc(Oc2ccc(S(=O)(=O)Nc3ccc(F)cn3)cc2C#N)cc(C)c1C#N` [Example 79, 3-cyano-4-(4-cyano-3,5-dimethylphenoxy)-N-(5-fluoropyridin-2-yl)benzenesulfonamide] the value was 7 nM.

As for `O=S(=O)(Nc1ncccn1)c1cc(Cl)c(Oc2ccc(Cl)cc2OC(F)F)cc1F` [Example 83, 5-chloro-4-[4-chloro-2-(difluoromethoxy)phenoxy]-2-fluoro-N-(pyrimidin-2-yl)benzenesulfonamide], the IC50 is more than 5970 nM. Take `COc1cccc(Cl)c1Oc1ccc(S(=O)(=O)Nc2ccc(F)cn2)cc1C#N` [Example 114, 4-(2-chloro-6-methoxyphenoxy)-3-cyano-N-(5-fluoropyridin-2-yl)benzenesulfonamide]: the IC50 worked out at 69 nM. `N#Cc1ccc(Oc2cc(F)c(S(=O)(=O)Nc3ccc(F)cn3)cc2F)cc1F` [Example 95, 4-(4-cyano-3-fluorophenoxy)-2,5-difluoro-N-(5-fluoropyridin-2-yl)benzenesulfonamide] yielded an IC50 of more than 10000 nM. In turn, `Cc1cc(Oc2ccc(S(=O)(=O)Nc3ccc(F)cn3)cc2C#N)ccc1Cl` [Example 34, 4-(4-chloro-3-methylphenoxy)-3-cyano-N-(5-fluoropyridin-2-yl)benzenesulfonamide] registered a half-maximal inhibitory concentration (IC50) of 80 nM. `COc1ccc(Oc2ccc(S(=O)(=O)Nc3ccc(F)cn3)cc2C#N)cc1F` [Example 132, 3-cyano-4-(3-fluoro-4-methoxyphenoxy)-N-(5-fluoropyridin-2-yl)benzenesulfonamide] showed a concentration for half-maximal inhibition (IC50) of 38 nM. Compound `N#Cc1ccc(Oc2ccc(S(=O)(=O)Nc3cnccn3)cc2C#N)cc1Cl` [Example 93, 4-(3-chloro-4-cyanophenoxy)-3-cyano-N-(pyrazin-2-yl)benzenesulfonamide] gave an IC50 of 2980 nM.

On to `N#Cc1cc(S(=O)(=O)Nc2ccc(F)cn2)ccc1Oc1cccc(Cl)c1C#N` [Example 179, 4-(3-chloro-2-cyanophenoxy)-3-cyano-N-(5-fluoropyridin-2-yl)benzenesulfonamide], for which the IC50 was more than 728 nM. The compound `N#Cc1cc(S(=O)(=O)Nc2ccc(F)cn2)ccc1Oc1ccccc1F` [Example 41, 3-cyano-4-(2-fluorophenoxy)-N-(5-fluoropyridin-2-yl)benzenesulfonamide] came in with an IC50 of 162 nM. In turn, `Cc1ccc(NS(=O)(=O)c2ccc(Oc3ccc(C#N)c(Cl)c3)c(C#N)c2)nc1` [compound 233] gave an IC50 of 233 nM. `CC(C)c1ccc(Oc2ccc(S(=O)(=O)Nc3ccc(F)cn3)cc2C#N)cc1` [Example 126, 3-cyano-N-(5-fluoropyridin-2-yl)-4-[4-(propan-2-yl)phenoxy]benzenesulfonamide] showed an IC50 of more than 10000 nM. As for `CCOc1ncc(Oc2ccc(S(=O)(=O)Nc3ccc(F)cn3)cc2C#N)cc1Cl` [Example 125, 4-[(5-chloro-6-ethoxypyridin-3-yl)oxy]-3-cyano-N-(5-fluoropyridin-2-yl)benzenesulfonamide], 237 nM corresponded to half-maximal inhibition (IC50).

For the origin of these results see patent US9067922B2, “Chemical compounds” (Pfizer Limited, priority 2013, dated 2015).
